Values after ≈ are worked out from the molar mass of the structure shown. Like-named read-outs stand apart in the source and are kept apart here.
Experiments:
[1] = test system: Cryptosporidium parvum (CP); experiment: Cell culture model of Cryptosporidium parvum infection in HCT-8 cells, real-time qRT-PCR; type: cell-based; conditions: Cryptosporidium parvum; for MIC50: 44 h
Method: Fresh oocysts of CP (Iowa strain) were purchased from Bunch Grass Farm (Deary, Id.). Oocysts were further purified by a Percoll-based gradient centrifugation method and surface sterilized with 10% bleach for 7 min on ice, followed by washes with phosphate-buffered saline (PBS). An ileocecal colorectal adenocarcinoma cell line (HCT-8, ATCC #CCL-244) was used to host the growth of CP in vitro. One day before the inoculation, HCT-8 cells were seeded in 96-well plates (2.5×10^4/well) containing RPMI 1640 medium supplied with 10% fetal bovine serum (200 μL medium/well in all experiments) and allowed to grow overnight at 37° C. under 5% CO2 atmosphere until they reached ˜90% confluence. For drug testing, host cells were infected with 1.5×10^4 oocysts per well (ratio ˜1:3). After inoculation, parasite oocysts were allowed to undergo excystation and invasion into host cells for 3 h at 37° C. Free parasites and oocyst walls in the medium were removed from the plates by an exchange of the culture medium. Drugs at specified concentrations were added into the culture at this time point (immediately after the medium exchange). Parasite-infected cells were then incubated at 37° C. for additional 41 h (total 44 h infection time). At least two independent experiments were conducted for every experimental condition, each including two replicates drugs and eight replicates for negative controls.
Plates containing HCT-8 cells infected with CP for 44 h were first centrifuged for 10 min at 1000×g to ensure that free merozoites in the medium were firmly settled on the bottom of the wells. Medium was removed, followed by two gentle washes with PBS. For extracting total RNA, 200 μL of ice-cold Bio-Rad iScript qRT-PCR sample preparation reagent (lysis buffer) (Bio-Rad Laboratories, Hercules, Calif.) was added into each well. Plates were sealed with heat sealing films and subjected to vortex for 20 min. Plates were then incubated at 75° C. for 15 min, followed by centrifugation (5 min, 2000×g) to settle down cell debris. Supernatants were used immediately in subsequent qRT-PCR reactions or the plates were stored at −80° C. until use.
The levels of 18S rRNA transcripts from CP and host cells (referred to as Cp18S and Hs18S) were detected by real-time qRT-PCR method using qScrip™ one-step SYBR green qRT-PCR kit (Quanta Biosciences, Gaithersburg, Md.). Cell lysates prepared as described above were diluted by 100 and 2000 folds for detecting Cp18S and Hs18S transcripts, respectively. Reactions were performed in hard-shell 384-well skirted PCR plates (Bio-Rad Laboratories, Hercules, Calif.) (10 μL/well) containing 3 μL diluted cell lysate, 5 μL one-step SYBR green master mix, 0.2 μl RT master mix and the following primers: Cp18S-1011F and Cp18S-1185R primer pair for Cp18S rRNA, and Hs18S-1F and Hs18S-1R primer pair for Hs18S rRNA. Hs18S levels were used as controls and for normalization.
Real-time qRT-PCR reactions were performed by a Bio-Rad CFX384 Touch Real-Time PCR Detection System. The reactions started with synthesizing cDNA at 50° C. for 20 min, followed by 5 min at 95° C. to denature RNA-cDNA hybrids and deactivate reverse transcriptase, and 40 two-temperature thermal cycles of PCR amplification at 95° C., 10 sec and 58° C., 30 sec. At the end of PCR amplification, melting curve analysis was performed between 65° C. to 95° C. At least 2 technical replicates were included in qRT-PCR reactions for each sample.
The % inhibition (% inh @ (μM)) was calculated using a standard curve.

S. cerevisiae = experiment: in vitro; conditions: Saccharomyces cerevisiae
human fibroblast = experiment: in vitro
[2] = CP in HCT-8 cells, 44 h infection, 50% reduction of parasite growth vs control, NA: not active, read-out: MIC50

SMILES	concentrations at which not toxic, S. cerevisiae cytotoxicity testing (S. cerevisiae) [µM]	MIC50 [1, 2] [µM]	concentrations at which not toxic, human fibroblast cytotoxicity testing (human fibroblast; human) [µM]	other results
CONC(=O)COc1ccc(Oc2cnc3cc(Cl)ccc3n2)cc1 [NZ-274, 2-{4-[(6-chloroquinoxalin-2-yl)oxy]phenoxy}-N-methoxyacetamide]	≥ 100			inhibition at 10 µM ([1]; HCT-8, read-out: % inh @ (μM)): 1.5%; concentrations at which not toxic, human fibroblast cytotoxicity testing (human fibroblast): ≥ 100 µM
CNC(=O)Cc1c(F)cc(Oc2nc3cc(F)c(F)cc3s2)cc1F [NZ-450, 2-{4-[(5,6-difluoro-1,3-benzothiazol-2-yl)oxy]-2,6-difluorophenyl}-N-methylacetamide]	≥ 100	~2 (≈ 0.741 µg/mL)	≥ 100	
CC(C(=O)N1CCN(C)CC1)c1ccc(Oc2nc3cc(F)c(F)cc3s2)cc1 (centres unmarked) [NZ-465, 2-{4-[(5,6-difluoro-1,3-benzothiazol-2-yl)oxy]phenyl}-1-(4-methylpiperazin-1-yl)propan-1-one]	≥ 100	< 0.25	≥ 100	inhibition at 0.25 µM ([1]; HCT-8, @0.25 uM): 68%
CNC(=O)Cc1ccc(Oc2nc3ccc(Cl)cc3s2)cc1O [NZ-389, 2-{4-[(6-chloro-1,3-benzothiazol-2-yl)oxy]-2-hydroxyphenyl}-N-methylacetamide]	≥ 100	~1.1 (≈ 0.384 µg/mL)	≥ 100	
COC(=O)Cc1ccc(Oc2nc3cc(F)c(F)cc3s2)cc1 [NZ-398, methyl 2-{4-[(5,6-difluoro-1,3-benzothiazol-2-yl)oxy]phenyl}acetate]	≥ 100			MIC50 [1]: ~10 µM; inhibition at 10 µM ([1]; HCT-8, read-out: % inh @ (μM)): 50%; concentrations at which not toxic, human fibroblast cytotoxicity testing (human fibroblast): ≥ 100 µM
CNC(=O)C(C)c1ccc(Oc2nc3cc(F)c(F)cc3s2)cc1 (centres unmarked) [NZ-387, 2-{4-[(5,6-difluoro-1,3-benzothiazol-2-yl)oxy]phenyl}-N-methylpropanamide]	≥ 100	~0.44 (≈ 0.153 µg/mL)	≥ 100	
CN1CCN(C(=O)Cc2ccc(Oc3nc4ccc(Cl)cc4s3)cc2)CC1 [NZ-464, 2-{4-[(6-chloro-1,3-benzothiazol-2-yl)oxy]phenyl}-1-(4-methylpiperazin-1-yl)ethan-1-one]	≥ 100	0.05 to 0.27 (≈ 0.0201 to 0.109 µg/mL)	≥ 100	
NC(=O)Cc1ccc(Oc2nc3ccc(Cl)cc3s2)cc1F [NZ-500, 2-{4-[(6-chloro-1,3-benzothiazol-2-yl)oxy]-2-fluorophenyl}acetamide]	≥ 100	~0.25 (≈ 0.0842 µg/mL)	≥ 100	
CNC(=O)Cc1ccc(Oc2nc3cc(F)c(F)cc3s2)cc1O [NZ-401, 2-{4-[(5,6-difluoro-1,3-benzothiazol-2-yl)oxy]-2-hydroxyphenyl}-N-methylacetamide]	≥ 100			inhibition at 4 µM ([1]; HCT-8, read-out: % inh @ (μM)): 3%; concentrations at which not toxic, human fibroblast cytotoxicity testing (human fibroblast): ≥ 100 µM
CC(C)NC(=O)Nc1ccc(Oc2nc3ccc(F)cc3s2)cc1 [NZ-332, 1-{4-[(6-fluoro-1,3-benzothiazol-2-yl)oxy]phenyl}-3-(propan-2-yl)urea]	≥ 100			MIC50 [1]: ~2.5 µM (≈ 0.863 µg/mL); concentrations at which not toxic, human fibroblast cytotoxicity testing (human fibroblast): ≥ 100 µM
CN1CCN(C(=O)Cc2ccc(Oc3nc4cc(F)c(F)cc4s3)cc2)CC1 [NZ-409, 2-{4-[(5,6-difluoro-1,3-benzothiazol-2-yl)oxy]phenyl}-1-(4-methylpiperazin-1-yl)ethan-1-one]	≥ 100	~0.44 (≈ 0.178 µg/mL)	≥ 100	
CNC(=O)Cc1c(F)cc(Oc2cnc3cc(Cl)ccc3n2)cc1F [NZ-460, 2-{4-[(6-chloroquinoxalin-2-yl)oxy]-2,6-difluorophenyl}-N-methylacetamide]	≥ 100		≥ 100	inhibition at 5 µM ([1]; HCT-8, @5 uM): 19%
CONC(=O)[C@@H](C)Oc1ccc(Oc2cnc3cc(Cl)ccc3n2)cc1 [NZ-295, (2R)-2-{4-[(6-chloroquinoxalin-2-yl)oxy]phenoxy}-N-methoxypropanamide]	≥ 100		≥ 100	inhibition at 10 µM ([1]; HCT-8, @10 uM, read-out: % inh @): 61%
CC(C)NC(=O)Nc1ccc(Oc2nc3ccc(Cl)cc3s2)cc1 [NZ-331, 1-{4-[(6-chloro-1,3-benzothiazol-2-yl)oxy]phenyl}-3-(propan-2-yl)urea]	≥ 100			inhibition at 0.05 µM ([1]; HCT-8, read-out: % inh @ (μM)): 36%; concentrations at which not toxic, human fibroblast cytotoxicity testing (human fibroblast): ≥ 100 µM
O=C(Cc1ccc(Oc2nc3ccc(F)cc3s2)cc1F)NC1CC1 [NZ-446, N-cyclopropyl-2-{2-fluoro-4-[(6-fluoro-1,3-benzothiazol-2-yl)oxy]phenyl}acetamide]	≥ 100	1 to 4 (≈ 0.36 to 1.44 µg/mL)	≥ 100	
CN1CCN(C(=O)Cc2ccc(Oc3nc4ccc(F)cc4s3)cc2)CC1 [NZ-476, 2-{4-[(6-fluoro-1,3-benzothiazol-2-yl)oxy]phenyl}-1-(4-methylpiperazin-1-yl)ethan-1-one]	≥ 100	0.5 to 1 (≈ 0.193 to 0.385 µg/mL)	≥ 100	
O=C(Cc1ccc(Oc2nc3ccc(F)cc3s2)cc1)NCCO [NZ-426, 2-{4-[(6-fluoro-1,3-benzothiazol-2-yl)oxy]phenyl}-N-(2-hydroxyethyl)acetamide]	≥ 100	0.25 to 1 (≈ 0.0866 to 0.346 µg/mL)	≥ 100	
NC(=O)Cc1ccc(Oc2nc3cc(F)c(F)cc3s2)cc1F [NZ-496, 2-{4-[(5,6-difluoro-1,3-benzothiazol-2-yl)oxy]-2-fluorophenyl}acetamide]	≥ 100	0.25 to 1 (≈ 0.0846 to 0.338 µg/mL)	≥ 100	
CN(C)CCNC(=O)Cc1ccc(Oc2nc3ccc(F)cc3s2)cc1 [NZ-425, N-[2-(dimethylamino)ethyl]-2-{4-[(6-fluoro-1,3-benzothiazol-2-yl)oxy]phenyl}acetamide]	≥ 100	0.25 to 0.5 (≈ 0.0934 to 0.187 µg/mL)	≥ 100	

— patent publication US11083717B2, “Compositions and methods for drug sensitization of parasites” (The Texas A&M University System, priority 2015, dated 2021)
